According to ChEMBL document CHEMBL1201862, “PubChem BioAssay data set” (2004):
Active and inactive are the calls of the source.

Key:
[1] = HEp-2 cell cytotoxicity, dose response, cytotoxicity control for RSV inhibitor project, HTS (AID 2410); format: functional; details: human respiratory syncytial virus
Cytochrome P450 2D6 = Cytochrome P450 2D6 (Homo sapiens, UniProt P10635);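 also: CYP2D6 member of a cytochrome P450 panel assay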
Cytochrome P450 2C19 = Cytochrome P450 2C19 (Homo sapiens, UniProt P33261); experiment: Cytochrome panel assay with activity outcomes. Panel member name: p450-cyp2c19 Compounds with AC50 equal or less than 10 uM are considered active; format: functional; details: read-out: AC50
Chain of Cytochrome P450 2C19 (P33261 whole entry): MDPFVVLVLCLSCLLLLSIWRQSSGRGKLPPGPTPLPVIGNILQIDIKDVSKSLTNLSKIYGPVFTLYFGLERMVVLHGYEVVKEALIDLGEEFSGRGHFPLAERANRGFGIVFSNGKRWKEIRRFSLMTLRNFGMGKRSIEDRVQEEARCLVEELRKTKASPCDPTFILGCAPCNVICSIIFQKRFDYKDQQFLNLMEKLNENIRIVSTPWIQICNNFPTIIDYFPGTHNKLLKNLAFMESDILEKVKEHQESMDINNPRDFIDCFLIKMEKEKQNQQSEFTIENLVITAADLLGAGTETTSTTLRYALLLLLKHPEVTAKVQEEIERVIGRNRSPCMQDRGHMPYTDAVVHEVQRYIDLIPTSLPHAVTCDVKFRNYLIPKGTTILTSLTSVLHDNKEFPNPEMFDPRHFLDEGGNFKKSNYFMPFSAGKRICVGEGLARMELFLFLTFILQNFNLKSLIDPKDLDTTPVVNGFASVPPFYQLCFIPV

Cytochrome P450 1A2 = target: T1, Cytochrome P450 1A2 (Homo sapiens, UniProt P05177);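 also: PubChem cytochrome P450 panel assay, CYP1A2 panel member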
T1 sequence (P05177 whole entry): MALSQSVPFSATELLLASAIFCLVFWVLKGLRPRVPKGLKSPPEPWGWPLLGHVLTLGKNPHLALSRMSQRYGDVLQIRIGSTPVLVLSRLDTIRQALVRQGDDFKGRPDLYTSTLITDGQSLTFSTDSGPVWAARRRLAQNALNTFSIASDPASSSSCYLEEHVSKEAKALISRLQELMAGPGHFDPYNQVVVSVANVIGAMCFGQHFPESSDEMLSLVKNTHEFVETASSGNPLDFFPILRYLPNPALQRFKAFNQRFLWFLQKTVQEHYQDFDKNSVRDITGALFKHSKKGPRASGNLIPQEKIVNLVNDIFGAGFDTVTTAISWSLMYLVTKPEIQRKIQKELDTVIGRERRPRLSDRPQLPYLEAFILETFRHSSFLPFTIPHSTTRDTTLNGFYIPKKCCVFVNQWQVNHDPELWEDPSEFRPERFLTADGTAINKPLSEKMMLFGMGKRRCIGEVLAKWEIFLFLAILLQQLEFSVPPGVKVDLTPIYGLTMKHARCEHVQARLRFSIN

[2] = tested on: Streptococcus sp. 'group A'; experiment: growth inhibition of control SK(-) GAS strain, dose response, counter-screen for streptokinase expression inhibitor project, luminescence, kanamycin, BacTiterGlo, confirmation (AID 1900); format: functional, organism-based
Streptococcus = experiment: Group A Streptococcus viability loss, dose response, counter-screen for streptokinase expression inhibitor project, luminescence, BacTiterGlo (AID 1915); format: functional, organism-based;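 also: potency for reduction of bacterial viability or growth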
Streptokinase A = target: T2, Streptokinase A (Streptococcus pyogenes serotype M1, UniProt P10520); experiment: S. pyogenes streptokinase expression inhibitors, potency, dose response, plasminogen activation absorbance, OD405 (AID 1914); format: functional, Streptococcus pyogenes M1 GAS;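 also: secreted streptokinase activity via plasminogen activation per viability signal from cell pellet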
T2 sequence (P10520 whole entry): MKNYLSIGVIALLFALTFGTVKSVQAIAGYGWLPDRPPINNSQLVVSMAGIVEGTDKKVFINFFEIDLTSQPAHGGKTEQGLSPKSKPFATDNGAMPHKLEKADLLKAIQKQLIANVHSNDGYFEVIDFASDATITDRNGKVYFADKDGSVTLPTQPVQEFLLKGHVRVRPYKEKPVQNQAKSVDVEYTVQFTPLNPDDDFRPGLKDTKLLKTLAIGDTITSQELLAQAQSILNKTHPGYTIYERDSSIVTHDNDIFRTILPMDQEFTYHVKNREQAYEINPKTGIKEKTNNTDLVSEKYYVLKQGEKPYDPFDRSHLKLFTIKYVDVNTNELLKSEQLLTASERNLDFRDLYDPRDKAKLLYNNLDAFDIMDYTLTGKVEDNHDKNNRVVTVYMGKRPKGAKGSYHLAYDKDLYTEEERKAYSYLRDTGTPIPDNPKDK

Cytochrome P450 2C9 = Cytochrome P450 2C9 (Homo sapiens, UniProt P11712)
Chain of Cytochrome P450 2C9 (P11712 whole entry): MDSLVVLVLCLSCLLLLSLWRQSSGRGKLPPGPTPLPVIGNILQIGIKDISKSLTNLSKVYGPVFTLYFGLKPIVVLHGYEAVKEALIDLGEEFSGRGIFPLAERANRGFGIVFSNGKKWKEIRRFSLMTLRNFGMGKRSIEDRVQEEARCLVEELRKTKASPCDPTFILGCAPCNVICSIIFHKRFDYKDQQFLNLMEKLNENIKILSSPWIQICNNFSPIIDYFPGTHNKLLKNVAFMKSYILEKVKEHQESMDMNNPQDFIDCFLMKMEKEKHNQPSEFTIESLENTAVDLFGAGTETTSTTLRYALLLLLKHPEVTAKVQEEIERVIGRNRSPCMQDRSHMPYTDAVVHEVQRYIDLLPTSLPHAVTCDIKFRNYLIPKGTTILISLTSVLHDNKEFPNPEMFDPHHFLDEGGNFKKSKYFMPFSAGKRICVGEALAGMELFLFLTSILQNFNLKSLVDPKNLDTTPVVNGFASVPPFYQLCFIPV

Cytochrome P450 3A4 = Cytochrome P450 3A4 (Homo sapiens, UniProt P08684);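 also: CYP3A4 tested as one member of a cytochrome P450 panel screen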
Chain of Cytochrome P450 3A4 (P08684 whole entry): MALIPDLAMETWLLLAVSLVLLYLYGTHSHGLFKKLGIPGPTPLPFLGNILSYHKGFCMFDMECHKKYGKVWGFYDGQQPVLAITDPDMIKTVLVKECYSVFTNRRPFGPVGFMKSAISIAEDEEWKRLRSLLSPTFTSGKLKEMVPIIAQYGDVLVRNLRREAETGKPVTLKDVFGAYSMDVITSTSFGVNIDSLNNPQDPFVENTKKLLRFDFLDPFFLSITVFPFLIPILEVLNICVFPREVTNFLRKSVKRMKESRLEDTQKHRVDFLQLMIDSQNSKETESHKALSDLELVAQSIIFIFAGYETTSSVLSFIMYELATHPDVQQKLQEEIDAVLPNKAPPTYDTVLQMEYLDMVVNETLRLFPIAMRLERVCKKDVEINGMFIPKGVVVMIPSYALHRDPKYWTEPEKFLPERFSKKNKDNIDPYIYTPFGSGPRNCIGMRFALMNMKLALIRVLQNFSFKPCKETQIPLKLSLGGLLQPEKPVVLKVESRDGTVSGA

[3] = target: T3, Corticotropin-releasing factor receptor 2/Corticotropin-releasing factor-binding protein (Homo sapiens, UniProt P24387+Q13324); experiment: activators of CRF receptor 2 with binding protein – uHTS hits, confirmation (AID 602473); format: functional; details: read-out: EC50_Mean
T3 sequence (Q13324 whole entry): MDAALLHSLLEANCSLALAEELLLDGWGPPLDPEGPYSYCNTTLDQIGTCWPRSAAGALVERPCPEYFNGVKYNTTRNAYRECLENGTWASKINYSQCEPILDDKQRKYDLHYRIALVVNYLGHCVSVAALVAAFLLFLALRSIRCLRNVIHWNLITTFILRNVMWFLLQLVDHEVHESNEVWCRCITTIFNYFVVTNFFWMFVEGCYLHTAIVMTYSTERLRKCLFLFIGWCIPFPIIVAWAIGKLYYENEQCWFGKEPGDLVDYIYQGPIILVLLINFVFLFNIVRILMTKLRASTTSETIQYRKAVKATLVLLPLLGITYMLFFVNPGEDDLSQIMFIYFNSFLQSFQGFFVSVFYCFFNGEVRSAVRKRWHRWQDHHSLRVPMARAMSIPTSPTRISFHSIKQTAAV
T3 sequence (P24387 whole entry): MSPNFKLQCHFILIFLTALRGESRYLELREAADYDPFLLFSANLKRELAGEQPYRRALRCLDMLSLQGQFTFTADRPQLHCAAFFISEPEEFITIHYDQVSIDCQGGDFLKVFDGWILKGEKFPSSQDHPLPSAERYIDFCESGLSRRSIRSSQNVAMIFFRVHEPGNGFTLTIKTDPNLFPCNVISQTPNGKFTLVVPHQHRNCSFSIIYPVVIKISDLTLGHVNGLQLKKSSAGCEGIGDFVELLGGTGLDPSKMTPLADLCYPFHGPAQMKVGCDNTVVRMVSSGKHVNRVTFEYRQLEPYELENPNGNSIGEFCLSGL

[4] = Luminescence Cell-Based Dose Retest to Confirm Inhibitors of Cancer Stem Cells. [Related pubchem assays (depositor defined):AID2717, AID2721]; format: functional; details: Homo sapiens
[5] = target: T4, Heat shock factor protein 1 (Mus musculus, UniProt P38532); experiment: inhibition of MG132-induced HSE-luciferase signal, confirmation, cell-based, NIH3T3, luminescence, dose retest (AID 2382); format: functional;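 also: NIH3T3 fibroblasts with HSF1-driven luciferase reporter stressed by proteasome inhibitor MG132; luminescence from HSF1-driven luciferase expression after 8 hours of MG132 stress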
T4 sequence (P38532 whole entry): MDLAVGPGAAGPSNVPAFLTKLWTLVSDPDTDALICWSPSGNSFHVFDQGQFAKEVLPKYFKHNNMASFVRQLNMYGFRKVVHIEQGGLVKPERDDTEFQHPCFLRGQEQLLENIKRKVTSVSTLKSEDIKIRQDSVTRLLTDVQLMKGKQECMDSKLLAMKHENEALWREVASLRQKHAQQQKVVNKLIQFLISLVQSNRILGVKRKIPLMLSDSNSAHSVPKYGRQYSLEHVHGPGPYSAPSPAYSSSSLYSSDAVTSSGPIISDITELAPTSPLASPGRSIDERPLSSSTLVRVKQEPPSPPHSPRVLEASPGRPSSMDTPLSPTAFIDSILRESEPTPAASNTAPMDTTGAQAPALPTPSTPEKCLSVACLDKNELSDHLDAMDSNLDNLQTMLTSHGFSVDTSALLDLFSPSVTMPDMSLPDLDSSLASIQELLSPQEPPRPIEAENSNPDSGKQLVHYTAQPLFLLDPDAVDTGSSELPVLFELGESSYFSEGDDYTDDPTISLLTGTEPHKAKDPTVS

Paired box protein Pax-8 = Paired box protein Pax-8 (Homo sapiens, UniProt Q06710); experiment: inhibitors of PAX8-driven TPO luciferase reporter, dose response, RMG-I cells, cherry-pick (AID 687027); format: functional, cell-based;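 also: luciferase reporter driven by Pax8 target thyroperoxidase promoter measured by SteadyGlo luminescence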
Chain of Paired box protein Pax-8 (Q06710 whole entry): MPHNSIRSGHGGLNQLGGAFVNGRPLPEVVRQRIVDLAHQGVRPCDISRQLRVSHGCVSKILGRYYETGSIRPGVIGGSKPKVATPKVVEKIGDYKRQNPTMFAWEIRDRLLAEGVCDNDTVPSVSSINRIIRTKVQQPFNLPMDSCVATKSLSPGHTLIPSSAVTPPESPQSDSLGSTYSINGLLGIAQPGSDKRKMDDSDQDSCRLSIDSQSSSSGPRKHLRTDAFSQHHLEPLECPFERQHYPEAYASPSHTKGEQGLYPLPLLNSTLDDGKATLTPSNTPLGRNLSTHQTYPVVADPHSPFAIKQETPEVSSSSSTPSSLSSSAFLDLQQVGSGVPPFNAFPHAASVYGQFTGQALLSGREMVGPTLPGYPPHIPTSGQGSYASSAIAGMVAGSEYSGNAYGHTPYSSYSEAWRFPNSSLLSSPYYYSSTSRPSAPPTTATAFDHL

[6] = Luminescence Cell-Based Dose Response HTS to Identify Activators of Luciferase Translation or Activity in H4 […] Cells. [Related pubchem assays: 1829 (Project Summary), 1814 (Primary HTS)]; format: functional

Chain of Cytochrome P450 2D6 (P10635 whole entry): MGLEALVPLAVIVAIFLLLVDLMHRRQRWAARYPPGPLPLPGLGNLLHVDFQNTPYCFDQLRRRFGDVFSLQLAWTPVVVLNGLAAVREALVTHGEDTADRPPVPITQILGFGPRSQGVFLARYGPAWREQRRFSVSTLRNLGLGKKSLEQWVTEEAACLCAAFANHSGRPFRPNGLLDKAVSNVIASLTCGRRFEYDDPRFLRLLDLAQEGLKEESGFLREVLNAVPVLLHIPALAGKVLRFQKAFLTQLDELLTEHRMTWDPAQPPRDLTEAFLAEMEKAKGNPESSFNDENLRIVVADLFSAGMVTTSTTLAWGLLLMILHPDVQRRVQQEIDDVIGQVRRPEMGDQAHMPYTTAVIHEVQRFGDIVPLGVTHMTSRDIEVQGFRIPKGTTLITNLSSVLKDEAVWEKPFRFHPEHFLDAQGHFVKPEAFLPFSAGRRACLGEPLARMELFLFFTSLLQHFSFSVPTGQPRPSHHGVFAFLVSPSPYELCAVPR

CCOC(=O)c1cc(-c2ccccc2)sc1NC(=O)C(C)OC(=O)c1ccncc1 (stereo unspecified)
CC50 [1]: 47.6 µM (active)

COC(=O)[C@@]1(Cc2ccc(F)cc2)[C@H]2c3cc(C(=O)N(C)C)n(Cc4ccc(Cl)c(C(F)(F)F)c4)c3C[C@H]2CN1C(=O)c1ccccc1
AC50 (Cytochrome P450 2D6): 6.31 µM (inconclusive) | AC50 (Cytochrome P450 2C19): 5.01 µM (inconclusive) | AC50 (Cytochrome P450 1A2): 15.8 µM (inconclusive)

COC(=O)[C@@]1(Cc2ccc(OC)cc2)[C@H]2c3cc(C(=O)N4CCCC4)n(CCc4ccc(O)c(OC)c4)c3C[C@H]2CN1C(=O)c1ccccc1
AC50 (Cytochrome P450 2D6): 39.8 µM (inconclusive)

Clc1ccc(COc2ccccn2)cc1Cl
AC50 (Cytochrome P450 2D6): 11.2 µM (inconclusive)

Cc1ccccc1OCC(=O)NCCS(=O)(=O)N1CCN(c2ccc(F)cc2)CC1
CC50 [1]: 38.1 µM (active)

COC(=O)[C@@]1(Cc2ccc(F)cc2)[C@H]2c3cc(C(=O)N(C)C)n(Cc4cc(C)n(C)n4)c3C[C@H]2CN1C(=O)c1ccccc1
AC50 (Cytochrome P450 2D6): 39.8 µM (inconclusive) | AC50 (Cytochrome P450 2C19): 39.8 µM (inconclusive)

CCc1nc(NCCO)c(C#N)c2c1CCCC2
CC50 [1]: 30.6 µM (active)

O=C(NCc1ccc2c(c1)OCO2)C1CC(=O)N(C2CCCC2)C1 (stereo unspecified)
AC50 (Cytochrome P450 2D6): 12.6 µM (inconclusive) | AC50 (Cytochrome P450 2C19): 35.5 µM (inconclusive) | AC50 (Cytochrome P450 1A2): 17.8 µM (inconclusive)

Cc1csc(Nc2ccc(Cl)cc2)[n+]1-c1ccc(Cl)cc1
EC50 [2]: 12.9 µM (active) | EC50 (Streptococcus): > 150 µM (not active) | EC50 (Streptokinase A): 29.9 µM (active)

CC(C)C(=O)NCCCc1ccccc1
AC50 (Cytochrome P450 2D6): 20 µM (inconclusive) | AC50 (Cytochrome P450 2C9): 5.62 µM (inconclusive)

O=C(CN1CCN(c2ccc(Cl)cc2)CC1)Nc1cccc(F)c1
AC50 (Cytochrome P450 2D6): 1.41 µM (inconclusive) | AC50 (Cytochrome P450 3A4): 25.1 µM (inconclusive)

COc1ccc2[nH]c(-c3ccccc3)c(CCNC(C)=O)c2c1
AC50 (Cytochrome P450 2D6): 25.1 µM (inconclusive)

CC(C)N(C(=O)CSc1nc(COc2ccccc2)nc2ccccc12)C(C)C
CC50 [1]: 23.7 µM (active)

COc1ccc2oc(C(=O)OCC(=O)NC3(C#N)CCCC3)c(C)c2c1
EC50 [2]: 57.9 µM (active) | EC50 (Streptococcus): > 150 µM (not active) | EC50 (Streptokinase A): > 150 µM (not active)

CCO[C@H]1OC(C(=O)NCc2ccccc2)=C[C@@H](c2ccc(Br)cc2)[C@@H]1CCCO
CC50 [1]: 22 µM (active)

Cn1c(CNC(=O)CNC(=O)c2ccc(F)cc2)cc(=O)n(C)c1=O
EC50 [2]: > 150 µM (not active) | EC50 (Streptococcus): > 150 µM (not active) | EC50 (Streptokinase A): > 150 µM (not active)

Cc1ccc(C(=O)NNC(=S)NC(=O)c2ccc(Cl)cc2Cl)cc1
EC50 [3]: 2.78 µM (active) | EC50 [2]: 0.196 µM (active) | EC50 (Streptococcus): 3.82 µM (active)

Nc1nc(CN2CCN(c3ccc(F)cc3)CC2)nc(N2CCCc3ccccc32)n1
EC50 [2]: 2.01 µM (active) | EC50 (Streptococcus): > 150 µM (not active) | EC50 (Streptokinase A): > 150 µM (not active)

CCOC(=O)c1sc(NC(=O)c2ccc(S(=O)(=O)N3CCCCCC3)cc2)nc1-c1ccccc1
CC50 [1]: 7.07 µM (active)

COc1ccc(NC(=O)CSc2nnc(CNC(=O)c3ccco3)n2-c2ccccc2OC)cc1
AC50 (Cytochrome P450 2D6): 35.5 µM (inconclusive) | AC50 (Cytochrome P450 2C9): 5.01 µM (inconclusive) | AC50 (Cytochrome P450 2C19): 3.98 µM (inconclusive) | AC50 (Cytochrome P450 3A4): 39.8 µM (inconclusive)

c1ccc(-c2nnc3sc(CN4CCc5ccccc54)cn23)cc1
AC50 [4]: 7.58 µM (active)

C1=Cc2ccccc2C1.C=C(C)c1ccccc1.[N-]=[N+]=Nc1ccccc1
AC50 (Cytochrome P450 2D6): 3.98 µM (inconclusive) | AC50 (Cytochrome P450 2C19): 3.16 µM (inconclusive)

Cc1cc(F)ccc1S(=O)(=O)NCC1CC2CCC1C2 (stereo unspecified)
EC50 [3]: > 53 µM (inactive)

O=C(NC(=S)Nc1ccc(F)cc1)c1ccc2c(c1)OCCO2
EC50 [3]: > 53 µM (inactive) | EC50 [5]: > 195 µM (not active)

CCN(CC)c1ccc(C=C2SC(=S)NC2=O)cc1
EC50 [3]: 4.11 µM (active)

CCOc1ccc(NS(=O)(=O)c2ccc(C(=O)NCC(c3cccs3)N3CCOCC3)cc2)cc1 (stereo unspecified)
EC50 [3]: 5.04 µM (active)

Clc1ccc(/C=C/c2nc(Cl)c(-c3ccc(Cl)cc3)c(Cl)n2)cc1
EC50 [2]: 33 µM (active) | EC50 (Streptococcus): > 150 µM (not active) | EC50 (Streptokinase A): 10 µM (active)

COc1ccc(S(=O)(=O)Nc2ccc3c(c2)CC(=O)N([C@H](C)CO)C[C@H](C)[C@@H](CN(C)Cc2ccc(Cl)c(Cl)c2)O3)cc1
AC50 (Paired box protein Pax-8): 16.2 µM (active)

Cc1ccc(S(=O)(=O)Nc2ccc3c(c2)C(=O)N([C@@H](C)CO)C[C@@H](C)[C@@H](CN(C)Cc2ccc(C(F)(F)F)cc2)OCCCC[C@@H](C)O3)cc1
AC50 (Paired box protein Pax-8): 13.3 µM (active)

CCOc1ccc(/C=N/NC(=S)NC2CC3C=CC2C3)cc1 (stereo unspecified)
EC50 [2]: > 150 µM (not active) | EC50 (Streptococcus): > 150 µM (not active) | EC50 (Streptokinase A): > 150 µM (not active)

N#C/C(=C\c1c(Cl)cccc1Cl)c1nc2ccccc2[nH]1
CC50 [1]: 20.3 µM (active)

C=CCn1/c(=N/C(=O)C2COc3ccccc3O2)sc2cccc(OC)c21 (stereo unspecified)
CC50 [1]: 18.4 µM (active)

Cc1ccc(C(C)C)c(OCc2ccc(C(=O)N/N=C/c3ccc(O)c(O)c3)cc2)c1
AC50 [4]: 3.23 µM (active)

Cc1cc(N/N=C/c2ccccc2Cl)nc(NCc2ccccc2)n1
AC50 [4]: 3.88 µM (active)

CC(=O)O[C@@H]1CN2CCC1CC2 [(S)-ACECLIDINE]
AC50 (Cytochrome P450 2D6): 15.8 µM (inconclusive)

CC1Oc2cc3oc4c(O)c5c(cc4c(=O)c3c(O)c2C1(C)C)C=CC(C)(C)O5 (stereo unspecified) [GERONTOXANTHONE A]
CC50 [1]: 14.9 µM (active) | EC50 [2]: 1.11 µM (active) | EC50 (Streptococcus): 25.9 µM (active) | EC50 (Streptokinase A): 10.7 µM (active) | EC50 [6]: 2.13 µM (active)
